Data reported in US11178868B2, “Alkynyl-substituted 3-phenylpyrrolidine-2,4-diones and use thereof as herbicides” (Bayer CropScience Aktiengesellschaft, priority 2015, dated 2021).

What was measured:
Format in all cases: in vivo
Amaranthus retroflexus = assay: Post-emergence herbicidal effect; settings: assessed visually after about 3 weeks
Experimental: (§1) Seeds of monocotyledonous and dicotyledonous weed and crop plants are laid out in sandy loam in wood-fibre pots, covered with soil and cultivated in a greenhouse under good growth conditions. 2 to 3 weeks after sowing, the test plants are treated at the one-leaf stage. The compounds according to the invention, formulated in the form of wettable powders (WP) or as emulsion concentrates (EC), are then sprayed as aqueous suspension or emulsion at a water application rate of 600 to 800 I/ha (converted) with the addition of 0.2% of wetting agent onto the green parts of the plants. After the test plants have been left to stand in the greenhouse under optimal growth conditions for about 3 weeks, the action of the preparations is assessed visually in comparison to untreated controls (herbicidal action in percent (%): 100% activity=the plants have died, 0% activity=like control plants).

Setaria viridis [1] = assay: Post-emergence herbicidal effect; settings: assessed visually after about 3 weeks
Experimental: as §1

Lolium multiflorum [2] = assay: Post-emergence herbicidal effect; settings: assessed visually after about 3 weeks
Experimental: as §1

Avena fatua [3] = assay: Post-emergence herbicidal effect; settings: assessed visually after about 3 weeks
Experimental: as §1

Echinochloa crus-galli [4] = assay: Post-emergence herbicidal effect; settings: assessed visually after about 3 weeks
Experimental: as §1

Alopecurus myosuroides [5] = assay: Post-emergence herbicidal effect; settings: assessed visually after about 3 weeks
Experimental: as §1

Lolium multiflorum [6] = assay: Pre-emergence herbicidal effect; settings: scored visually after 3 weeks
Description: (§2) Seeds of monocotyledonous and dicotyledonous weed plants and crop plants are laid out in wood-fibre pots in sandy loam and covered with soil. The compounds according to the invention formulated in the form of wettable powders (WP) or as emulsion concentrates (EC) are then applied as aqueous suspension or emulsion at a water application rate of 600 to 800 I/ha (converted) with the addition of 0.2% wetting agent to the surface of the covering soil. After the treatment, the pots are placed in a greenhouse and kept under good growth conditions for the trial plants. The damage to the test plants is scored visually after a test period of 3 weeks by comparison with untreated controls (herbicidal activity in percent (%): 100% activity=the plants have died, 0% activity=like control plants).

Avena fatua [7] = assay: Pre-emergence herbicidal effect; settings: scored visually after 3 weeks
Description: as §2

Echinochloa crus-galli [8] = assay: Pre-emergence herbicidal effect; settings: scored visually after 3 weeks
Description: as §2

Alopecurus myosuroides [9] = assay: Pre-emergence herbicidal effect; settings: scored visually after 3 weeks
Description: as §2

Setaria viridis [10] = assay: Pre-emergence herbicidal effect; settings: scored visually after 3 weeks
Description: as §2

Cyperus esculentus = assay: Pre-emergence herbicidal effect; settings: scored visually after 3 weeks
Description: as §2

SMILES | Herbicidal effect against [%] SETVI (Setaria viridis [1]; 20 g a.i./ha) [%] | Herbicidal effect against [%] SETVI (Setaria viridis [1]; 80 g a.i./ha) [%] | Herbicidal effect against [%] LOLMU (Lolium multiflorum [2]; 20 g a.i./ha) [%] | Herbicidal effect against [%] LOLMU (Lolium multiflorum [2]; 80 g a.i./ha) [%] | Herbicidal effect against [%] AVEFA (Avena fatua [3]; 20 g a.i./ha) [%] | Herbicidal effect against [%] AVEFA (Avena fatua [3]; 80 g a.i./ha) [%] | Herbicidal effect against [%] ECHCG (Echinochloa crus-galli [4]; 20 g a.i./ha) [%] | Herbicidal effect against [%] ECHCG (Echinochloa crus-galli [4]; 80 g a.i./ha) [%] | Herbicidal effect against [%] ALOMY (Alopecurus myosuroides [5]; 20 g a.i./ha) [%] | Herbicidal effect against [%] ALOMY (Alopecurus myosuroides [5]; 80 g a.i./ha) [%] | Herbicidal effect against [%] LOLMU (Lolium multiflorum [6]; 80 g a.i./ha) [%] | Herbicidal effect against [%] LOLMU (Lolium multiflorum [6]; 320 g a.i./ha) [%] | Herbicidal effect against [%] AVEFA (Avena fatua [7]; 80 g a.i./ha) [%] | Herbicidal effect against [%] AVEFA (Avena fatua [7]; 320 g a.i./ha) [%] | Herbicidal effect against [%] ECHCG (Echinochloa crus-galli [8]; 80 g a.i./ha) [%] | Herbicidal effect against [%] ECHCG (Echinochloa crus-galli [8]; 320 g a.i./ha) [%] | Herbicidal effect against [%] ALOMY (Alopecurus myosuroides [9]; 80 g a.i./ha) [%] | Herbicidal effect against [%] ALOMY (Alopecurus myosuroides [9]; 320 g a.i./ha) [%] | Herbicidal effect against [%] SETVI (Setaria viridis [10]; 80 g a.i./ha) [%] | Herbicidal effect against [%] SETVI (Setaria viridis [10]; 320 g a.i./ha) [%] | further results
CC#Cc1cc(C)c(C2=C(OC(=O)OC)C3(CCCC(OCCOC)C3)NC2=O)c(C)c1 (stereo not shown) [Example P16] | 100 | 100 | 100 | 100 | 100 | 100 | 100 | 100 | 100 | 100 | 100 | 100 | 100 | 100 | 100 | 100 | 100 | 100 | – | – | Herbicidal effect against [%] AMARE (Amaranthus retroflexus; 20 g a.i./ha): 80%; Herbicidal effect against [%] AMARE (Amaranthus retroflexus; 80 g a.i./ha): 80%
CC#Cc1cc(CC)c(C2=C(OC(=O)OCC)C3(CCCC(OCC)C3)NC2=O)c(CC)c1 (single isomer, unassigned) [Example P4] | 100 | 100 | 100 | 100 | – | 100 | 100 | 100 | – | 100 | 100 | 100 | 100 | 100 | 100 | 100 | 100 | 100 | 100 | 100 | Herbicidal effect against [%] AMARE (Amaranthus retroflexus; 80 g a.i./ha): 80%
CC#Cc1cc(C)c(C2=C(O)C3(CCCC(OCCC)C3)NC2=O)c(C)c1 (stereo not shown) [Example D3, 3-[2,6-Dimethyl-4-(prop-1-yn-1-yl)phenyl]-4-hydroxy-7-propoxy-1-azaspiro[4.5]dec-3-en-2-one] | 80 | 100 | 80 | 100 | – | 90 | 100 | 100 | – | – | 100 | 100 | 80 | 100 | 100 | 100 | 100 | 100 | 100 | 100 | Herbicidal effect against [%] AMARE (Amaranthus retroflexus; 80 g a.i./ha): 90%
CC#Cc1cc(CC)c(C2=C(OC(=O)C(C)C)C3(CCCC(OCCOC)C3)NC2=O)c(CC)c1 (stereo not shown) [Example P12] | 100 | 100 | 100 | 100 | 100 | 100 | 100 | 100 | 100 | 100 | 100 | 100 | 100 | 100 | 100 | 100 | 100 | 100 | 100 | 100 | –
C#Cc1cc(C)c(C2=C(O)C3(CCCC(OCCCC)C3)NC2=O)c(C)c1 (stereo not shown) [Example D4] | – | – | – | – | – | – | – | – | – | – | – | 80 | – | – | – | 100 | – | – | – | 80 | Herbicidal effect against [%] CYPES (Cyperus esculentus; 320 g a.i./ha): 100%
CC#Cc1cc(CC)c(C2=C(O)C3(CCCC(OCCOC)C3)NC2=O)c(CC)c1 (stereo not shown) [Example D5] | 100 | 100 | 100 | 100 | 100 | 100 | 100 | 100 | 100 | 100 | 100 | 100 | 100 | 100 | 100 | 100 | 100 | 100 | 100 | 100 | –
CC#Cc1ccc(C2=C(O)C3(CCCC(OCCOC)C3)NC2=O)c(CC)c1 (stereo not shown) [Example D7] | 100 | 100 | 100 | 100 | 100 | 100 | 100 | 100 | 100 | 100 | 100 | 100 | – | 100 | 100 | 100 | 100 | 100 | 100 | 100 | –
CC#Cc1cc(C)c(C2=C(OC(=O)OCC)C3(CCCC(OCC)C3)NC2=O)c(CC)c1 (stereo not shown) [Example P1] | – | 100 | – | – | – | – | – | – | – | – | 100 | 100 | 80 | 100 | 100 | 100 | 100 | 100 | 100 | 100 | Herbicidal effect against [%] CYPES (Cyperus esculentus; 80 g a.i./ha): 100%; Herbicidal effect against [%] CYPES (Cyperus esculentus; 320 g a.i./ha): 100%
